These results are taken from US9981972B2, “N-hydroxy bicyclic hydantoin carbamates as tools for identification of serine hydrolase targets” (ABIDE THERAPEUTICS, INC., priority 2014, dated 2018).

Each structure is given as a SMILES string. pIC50: −log10 of the molar value.

A word on the pIC50: it is the IC50 on a negative log10 scale, so that one unit is a factor of ten.

The subject of one series is LYPLA1/2. Put plainly: Gel filtration to assess mode of action, HeLa cell lysate. Type of series: biochemical, human. Conditions: 200 nM or 1000 nM, FP-Rh labeling before and after gel filtration. How it is done: In this assay, a complex proteome was incubated with test compound and a fraction of the assay mixture was passaged over a Sephadex G-25M column before reaction with FP-Rh and SDS-PAGE analysis as described above.
Protocol Summary: HeLa cell lysate (1 mL of 1 mg/ml in DPBS) was treated with test compound (200 nM or 1000 nM, from 50× stock in DMSO) or DMSO only (no compound control). Test compounds were incubated for 30 minutes at 37° C. An aliquot (50 μL) was removed from each reaction, and the remaining sample was passaged over a Sephadex G-25M desalting column. An aliquot (50 μL, 1 mg/mL protein, eluted in DPBS) was removed, and pre- and post-filtration aliquots were reacted with FP-Rh (50× stock in DMSO; 2 μM final concentration). The reaction was incubated for 30 minutes at 25° C., quenched with 16 μL 4× SDS-PAGE loading buffer (reducing), separated by SDS-PAGE and visualized by in-gel fluorescent scanning. The percentage activity remaining was determined by measuring the integrated optical density of the LYPLA1/2 bands (quantified together) relative to a DMSO-only (no compound) control. The percent recovery was calculated by comparing percent inhibition before and after gel filtration for each test compound concentration.
In general terms: SEC sorts molecules by how far they enter the pores of the column.

The nature of series [1]: Determination of glutathione reactivity. The conditions noted are these: 10 μM compound, 50 μM glutathione, 37° C., 6 h. Type of series: physicochemical. The method, then: Compound (10 μM) was incubated at 37° C. for 6 hours in the presence of 50 μM freshly prepared reduced glutathione. At 0 and 6 hours the samples were injected into the HPLC instrument. Peak area and retention time were compared between injections. Samples were evaluated for a glutathione dependent decrease in compound concentration. DMSO was added as a co-solvent as needed for solubility.

The next series concerns HeLa cells. Put plainly: Analysis of cytotoxicity (WST-1). Type of series: cell-based, human. The method, then: Assay Overview: The purpose of this assay was to determine cytotoxicity of powder samples of test compounds. In this assay, HeLa cells in either serum-free medium or medium containing fetal calf serum (FCS) were incubated with test compounds, followed by determination of cell viability. The assay utilized the WST-1 substrate, which was converted into colorimetric formazan dye by the metabolic activity of viable cells. The amount of formed formazan directly correlated to the number of metabolically active cells in the culture.
Protocol Summary: This assay was started by seeding HeLa cells in DMEM medium supplemented with 10% FCS and 1× Pen-Strep-Glutamine in a 96-well plate. Cells were incubated at 37° C. in a humidified incubator until 80% confluent (24 hours). Medium was removed, and 100 μL of fresh medium (serum-free or supplemented with 10% FCS), pre-mixed with DMSO or test compound, was added to each well. Cells were incubated for 48 hours at 37° C. in a humidified incubator and cell viability was determined by the WST-1 assay (Roche) according to manufacturer instructions. CC50 values were determined from dose-response curves from three replicates at each inhibitor concentration (10, 100, 1000, 10000, 100000 nM), compared to six replicates of cells treated with DMSO only.
(Tetrazolium dyes change colour on reduction, which living cells bring about.)

A further series deals with T1, human LYPLA1 (Homo sapiens, UniProt O75608).
T1 construct: endogenous human LYPLA1/2 in a HeLa soluble proteome; endogenous in cells; host or cells: HeLa (soluble proteome in vitro; cultured cells in situ)
T1 sequence (O75608 whole entry): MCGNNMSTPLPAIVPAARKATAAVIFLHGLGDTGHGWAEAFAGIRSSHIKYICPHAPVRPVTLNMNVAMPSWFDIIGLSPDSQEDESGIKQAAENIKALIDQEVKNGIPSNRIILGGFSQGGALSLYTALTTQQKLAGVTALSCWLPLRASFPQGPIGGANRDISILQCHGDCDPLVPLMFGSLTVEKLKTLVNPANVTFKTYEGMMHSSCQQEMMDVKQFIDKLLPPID
Put plainly: IC50 by gel-based competitive ABPP in situ, cultured HeLa cells. Type of series: cell-based. The conditions noted are these: 2 h, serum-supplemented medium. The method, then:
(§1) Assay Overview: The purpose of this assay was to determine IC50 values of powder samples of test compounds for enzyme of interest activity in situ using a gel-based competitive ABPP assay. In this assay, cultured cells were treated with test compound, harvested, and lysed. The isolated soluble proteome fraction was reacted with FP-Rh and analyzed by SDS-PAGE as described above.
(§2) Protocol Summary: To cultured HeLa cells (90% confluent) was added fresh DMEM (5 mL total volume; supplemented with 10% FCS) pre-mixed with DMSO or test compound. After 2 hours at 37° C., cells were harvested by scraping, washed twice with 10 mL DPBS, and homogenized by sonication in DPBS. The soluble fraction was isolated by centrifugation (100K×g, 45 minutes) and the protein concentration was adjusted to 1 mg/mL with DPBS. FP-Rh (1 μL of 50× stock in DMSO) was added to a final concentration of 2 μM in 50 μL total reaction volume. The reaction was incubated for 30 minutes at 25° C., quenched with 16 μL 4×SDS-PAGE loading buffer (reducing), separated by SDS-PAGE and visualized by in-gel fluorescent scanning. The percentage activity remaining was determined by measuring the integrated optical density of the enzymes of interest, and anti-target bands relative to a DMSO-only (no compound) control. […]

The target of a further series is T2, human LYPLA2 (Homo sapiens, UniProt O95372).
T2 construct: endogenous human LYPLA1/2 in a HeLa soluble proteome; endogenous in cells; host or cells: HeLa (soluble proteome in vitro; cultured cells in situ)
T2 sequence (O95372 whole entry): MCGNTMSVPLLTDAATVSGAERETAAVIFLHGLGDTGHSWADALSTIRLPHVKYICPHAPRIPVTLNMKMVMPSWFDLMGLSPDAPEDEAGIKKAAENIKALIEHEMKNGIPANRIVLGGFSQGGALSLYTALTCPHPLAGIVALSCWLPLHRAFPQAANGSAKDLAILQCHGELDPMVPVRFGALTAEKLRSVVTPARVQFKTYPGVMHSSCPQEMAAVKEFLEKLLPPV
The series is described as above. Type of series: cell-based. Conditions: 2 h, serum-supplemented medium. How it is done: as §1, §2

Another series addresses T3, ABHD4 (Mus musculus, UniProt Q8VD66).
T3 construct: from tissue; host or cells: tissues of C57BL6 mice
Put plainly: Inhibition by gel-based competitive ABPP in vivo. Conditions: 1-40 mg/kg i.p., 4 h, any tissue examined. The method, then:
Compound 26, Compound 34, and Compound 1 were administered across a dose range of 1-40 mg/kg to C57BL6 mice by intraperitoneal injection, and, after 4 hours, animals were sacrificed and tissues harvested for analysis by gel-based ABPP using the FP-Rh probe and the Compound 39 probe.

T3 sequence (Q8VD66 whole entry): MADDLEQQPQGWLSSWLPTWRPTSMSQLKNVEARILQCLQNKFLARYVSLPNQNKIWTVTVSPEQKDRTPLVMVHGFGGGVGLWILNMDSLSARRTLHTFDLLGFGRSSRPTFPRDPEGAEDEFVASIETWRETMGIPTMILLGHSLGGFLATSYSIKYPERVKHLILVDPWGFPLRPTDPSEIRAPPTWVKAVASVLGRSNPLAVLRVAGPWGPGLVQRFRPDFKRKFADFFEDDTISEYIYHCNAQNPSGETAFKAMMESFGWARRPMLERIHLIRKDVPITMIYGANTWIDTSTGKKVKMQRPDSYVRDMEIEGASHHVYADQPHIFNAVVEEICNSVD

Turning to `O=C(ON1C(=O)C2CN(C(=O)N3CCOCC3)CCN2C1=O)N1CCC(CCc2ccc(Cl)cc2)CC1` (stereo not shown) [Compound 1, 7-(morpholine-4-carbonyl)-1,3-dioxohexahydroimidazo[1,5-a]pyrazin-2(3H)-yl 4-(4-chloro-phenethyl)piperidine-1-carboxylate], in the series with LYPLA1/2, the “binding mode (gel filtration)” value is listed as “irreversible inhibitor”. In addition, the reactivity with glutathione result in series [1] is “did not show any reactivity”. In the series on HeLa cells (HeLa, 48 h, serum-free and serum-supplemented medium, up to 100 μM), the cytotoxicity entry is “did not show evidence of cytotoxicity”. Besides, in the series on HeLa cells (based on in situ IC50 values of 87/143 nM), the “dosing window (CC50 limit 10 μM versus in situ IC50)” value is recorded as roughly 70 fold. In addition, the negative logarithm of the IC50 (pIC50) was 7.06 at human LYPLA1 and 6.84 at human LYPLA2.

On to `O=C(ON1C(=O)C2CN(Cc3ccc(Oc4ccccc4)cc3)CCN2C1=O)N1CCOCC1` (stereo not shown) [Compound 34, 1,3-dioxo-7-(4-phenoxybenzyl)hexahydroimidazo[1,5-a]pyrazin-2(3H)-yl morpholine-4-carboxylate], for which the “blockade of ABHD4 in vivo” value at ABHD4 is on record as “did not block the activity of ABHD4 in any tissue examined”.
